Results from patent US20170198027A1 (priority 2012, published 2017).
“And” between values parts separate entries of the source, which are not always exact repeats. Equal entries are not always repeated. Where two headings read alike, the source gives them in different places.

Assays:
[1] = tested on: 4T1-luc breast cancer cells; settings: vs vehicle group
Description: The cell suspension was carried to the animal room in an ice box. […] Totally 80 mice were selected and divided into 10 groups. All mice were monitored daily.
Tumor growth status was monitored by both IVIS Lumina II and a digital caliper twice weekly since the day after cell implantation.
For IVIS Lumina II measurement, bioluminescence intensity of primary tumor and metastatic tumor was obtained according to the following procedure:
1. Tumor-bearing mice were \Neighted and intra peritoneally administered luciferin at a dose of 150 mg/kg (10 ml/kg);
2. After 10 min, mice were pre-anesthetized with the mixture of oxygen and isoflurane. […]
3. ROI data was calculated with IVIS Lumina II software and relative ROI was calculated to express the tumor growth status. […]
Tumor size was measured twice a week in two dimensions using a caliper. and the tumor volume (V) was expressed in mm3 using the formula: V=0.5 a×b2 where a and bare the long and short diameters […]
2. […] Body weights were measured and recorded twice weekly.
TGI (tumor growth inhibition, in percent) was calculated according to the following equation: […]
T/C (%) was calculated based on the tumor volume data collected on Day 27.
The difference between the mean values of tumor volume in treatment and vehicle groups was analyzed for significance using one way ANOVA test at each time point after log transformation.

[2] = tested on: ApoE ko mice fed with high fat diet
Source text: 10 ApoE ko mice were fed with regular chow diet and used as negative control group. 50 ApoE ko mice were fed with high fat diet (35% kcal fat, 1% cholesterol) for 8 weeks, and then the plasma samples were collected for lipid profile measurement before the treatment. 50 ApoE ko mice were assigned into 5 groups based on the fasting overnight plasma TC and HDL level.
19 Mar. 2012 to 6 Apr. 2012: Group the mice based on the TC and HDL level and start the treatment with 3 doses of antibody APOA1 by i.p daily on the weekday (The first dose was administered by iv injection
13 Apr. 2012-14 May 2012: The treatment with antibody APOA1 was changed to i.p injection every two days (Monday, Wednesday, and Friday) per client's instruction.
Antibody products were administrated by intraperitoneal injection every two days (Monday, Wednesday, and Friday). and the positive compound was administered by p.o every day.
5.4. Body weight and blood glucose measurement: The body weight was weighed weekly during the period of treatment. The fasting overnight blood glucose was measured at the end of study by Roche glucometer.
5.5 24 h food intake measurement: 24 hours food intake for each cage was measured weekly
5.6. Plasma lipid profile measurement: About 300 ul of blood sample was collected from the orbital vein for each mouse and centrifuged at 7000 rpm for 5 min at 4° C. and the plasma lipid profile was measured by Roche Modular automatic biochemistry analyzer in DaAn Medical Laboratory
After RAAS antibody products treatment for 8 weeks, all mice were sacrificed. Measured body weight and collected blood sample for each mouse. Weighed liver weight and saved a tiny piece of liver into 4% paraformaldehyde (PFA) fixation solution for further analysis. At same time, take the photos with heart, lung, aortas and two kidneys.
Scanning the glasses slides with the Aperio ScanScope system and analyze with the image proplus software to measure the area of atherosclerotic plaque session. The results were expressed as the percentage of the total aortic surface area covered by lesions. The operation procedure of software was briefly described as follow: Converted the sys version photos into JPG version, then calibrated it and subsequently selected the red regions and then calculate the total area automatically by image proplus software.
(§1) The results were expressed as the Mean±SEM and statistically evaluated by student's t-test.

HBV = HBV mouse hydrodynamic injection model; type: in vivo, BALB/c mice
Description: 3.1.1. From day −7 to day 0, all 5 mice in group 4 were administrated i.p./i.v. with test article daily for 8
3″ 1.2″ On day 0, all groups of mice were hydrodynamicly injected via tail vein with pcDNA3.1/HBV plasmid DNA in a volume of normal saline equal to 8% of a mouse body weight. The plasmid DNA solution for injections was prepared one day before injection and then stored in 4GC until injection”
[…] […] For group 4, the last dosing was carried out 4 hours post HOI.
3.1.4. All mice were submandibularly blec! for plasma preparation according to the design in Table 1.
3.1.5. All mice were sacrificed and c!issectec! to obtain livers (two pieces of left lobe, one piece of middle lobe and one piece of right lobe) according to the regimen in table 1. Isolated livers were snap frozen in liquid nitrogen immec!iately upon collected.
3.2.1.1 Isolate DNA from 50 pi plasma using QIAamp 96 DNA Blood Kit. DNA was eluted with
3.2.12 Run qPCR for HBV DNA quantification.
To eliminate the influence of input HBV plasmid, primers and probe targeting HBV sequence which detect newly replicated HBV DNA and input HBV plasmid DNA and targeting pcDNA3.1 plasmid backbone sequence which only detect the input plasmid DNA were used to do real-time PCR, respectively”
HBV DNA quantity=DNA determined by HBV primer-DNA determined by plasmid primer.
Dilute the plasma 500 fold;
Detect HBsAg level in 50 pl diluted plasma by using HBsAg ELISA kit.
a) Homogenize the liver tissue with Qiagen Tissue Lyser in 10 mM Tris.HCI, 10 mM EDTA, pH7.5.
The total liver DNA was diluted to 10 ng/pl. Use 10 iJI diluted sample to run real-time PCR. HBV DNA quantity=DNA determined by HBV primer-DNA determined by plasmid primer.
a) Load 50 pg DNA for each sample. Run •1.2% agarose gel in 1×TAE.

HCV = HCV replicon dose-dependent curves (figure legends, genotype not stated); type: cell-based; settings: FIG. 44/45 legends
Source text: FIGS. 44-1 through 44-18.
FIGS. 451 through 45-18-.
FIGS. 44-1 through 44-18. Dose-dependent curves (CC 50 values)
FIG. 45-1 through 45-18 Dose-dependent curves (EC50 values)

db/db mice = tested on: db/db mice
Description: Fasting 6 hours and overnight blood glucose were measured. 60 db/db mice were assigned into 5 grouped based on the fasting 6 h blood glucose and body weight. […] 8 db/rn lean mice was used as negative control group […]
5.2. Study duration: This study was conducted in two periods: Period 1: Oct. 13, 2011-Feb. […] 13-Mar. 16, 2012: Test 3 antibody products
Feb. 13, 2012: Start the treatment with 3 antibodies by i.p every two days (Monday, Wednesday, Friday) after 8 weeks washout from previous treatment.
Antibody products were administrated by intraperitoneal injection and the positive compound was mixed into food at the dose 30 rng/kg/day.
5.4. Body weight and blood glucose measurement: Fasting 6 hours body weight and blood glucose concentration were measured by Roche giucometer weekly.
5.5. Plasma insulin measurement: About 30 ul of blood sample was collected from the orbital vein for each mouse and centrifuged 7000 rpm at 4° C. for 5 min. Plasma samples were saved in −70 l-::. The plasma insulin level was measured with EUSA kit (CRYSTAL, cat#90080), 5.6. Plasma lipid profile measurement: The plasma lipid profile were measured by the DaAn Clinic central lab.
5.7. Study taken down: After 14 dose antibody products treatment, all mice were sacrificed. Measure body weight and collect blood sample for each mouse. Measure liver weight and save one piece for pathology study and freeze one piece in liquid nitrogen for further analysis in the future. Save pancreas into 4% paraformaldehyde (PFA) fixation solution for future analysis.
as §1

Influenza H1N1 A/WSN/33 [3] = type: in vivo, BALB/c mice
Influenza H1N1 A/WSN/33 [4] = type: in vivo, BALB/c mice; remark: listed apart in the source
Influenza H1N1 A/WSN/33 [5] = type: in vivo, BALB/c mice; settings: oseltamivir 30 mg/kg/day po/bid
[6] = tested on: New Zealand white rabbit fed with high fat diet; settings: rabbit, in vivo
Description: The treatment groups were given APOAJ via auricular vein once a week Vehicle controls received normal saline via auricular vein once a week. […] The body weight of animal was determined every week and whole blood was drawn every three weeks. The study duration was 19 weeks. At the end of study, all animals were sacrificed. […] Male New Zealand white rabbits were used in this study. […] Blood samples were taken 12 hour after fasting before study to determine the blood lipid parameters. […] Ten to 14 rabbits were in one group. […] First dose was given 1 week before high fat diet. […] 5.2 blood lipid parameters: whole blood was drawn every three weeks. Animals were subject to 12 hour fast before taking blood. […] The upper layer of serum was then separated and examined for total cholesterol (TC), total triglyceride (TG), low density lipoprotein cholesterin (LDL-C), and high density lipoprotein cholesterin (HDL-C). Test reagents were purchased from Shanghai A: The atherosclerosis of aorta (plaque area lj) B: Liver index C: Aorta, liver, heart, arteria carotis, kidney All animals were anesthetized by 20 of ethyl carbamate and then sacrificed with air injection. Abdomen cavity was opened. Whole blood was taken from heart. Heart was harvested along with 7 em of aorta. Then other organs like liver, kidney and arteria carotis were harvested. […] Pictures were taken then. Aorta was cut from aortic arch, opened longitudinally and taken picture. […] One piece of this sample was fixed in fomlalin for further pathological analysis. The weight of liver was determined immediately. Two pieces of specimen were cut from hepatic lobe. One was kept in cryo-preservation tube for lipid analysis and another one was fixed in formalin for further pathological analysis. Animals were fast for 12 hours before taking blood samples via auricular vein. […] Test reagents were purchased from Shanghai Rong Sheng Bio-pharmaceutical Co. Ltd. The aorta was dissected and opened for 7.5 em from aortic arch longitudinally. Pictures were taken and atherosclerosis changing was analyzed.

Nc1ccn([C@@H]2O[C@H](CO)[C@@H](O)C2(F)F)c(=O)n1 [gemcitabine, reference compound]
one-way ANOVA analysis on tumor volume changes ([1]; Day 20): *′** | tumor volume ([1]; gemcitabine since day 13): significant tumor volume reduction

CC(C)c1c(C(=O)Nc2ccccc2)c(-c2ccccc2)c(-c2ccc(F)cc2)n1CC[C@@H](O)C[C@@H](O)CC(=O)O [Atorvastatin, reference compound]
arteriosclerosis plaque lesion in the region of thoracic aorta (root plaque area) ([2]; APOA1 mid dose and low dose, not significant vs vehicle): trend of reducing the arteriosclerosis plaque lesion | fasting overnight blood glucose ([2]; after 8 weeks treatment vs vehicle): no effect | atherosclerosis plaque lesion area of aorta ([2]; after 8 weeks treatment, APOA1 low dose): significant reduced the plaque lesion area | Liver weight ([2]; atorvastatin 20 mg/kg, after 8 weeks treatment): reduced liver weight and the ratio of liver/body weight significantly | atherosclerosis plaque lesion from the aortic root to right renal artery ([2]; atorvastatin p=0.08): trend of reducing the atherosclerosis plaque lesion | body weight ([2]; vs vehicle group, atorvastatin after 5 weeks treatment): significantly reduced the body weight

APOA 1
Wounded (number of mice) ([2]; APOA 1 high dose group): 1 | Dead (number of mice) ([2]; APOA 1 high dose group, reason: Kidney infection & i.v injection): 2 | Wounded (number of mice) ([2]; APOA 1 mid dose group): 1 | Dead (number of mice) ([2]; APOA 1 mid dose group, reason: Blood collection): 1

C=C1[C@H](CO)[C@@H](O)C[C@@H]1n1cnc2c(=O)[nH]c(N)nc21 [ETV, Entecavir]
HBV intermediate DNA in livers (real-time PCR) (HBV; ETV day 5, RASS 8 prophylactic treatment day 7): significantly decreased the HBV intermediate DNA in liver | ssDNA, HBV replication intermediate DNA in livers (southern blot) (HBV; RASS 8 prophylactic treatment or ETV treatment): decreased dramatically | inhibition to the HBV replication (plasma) (HBV; therapeutically treated, from day 3 post HDI to end): significant inhibition | HBsAg level in plasma (ELISA) (HBV; within 5 days post HBV HDI, RASS 8 therapeutic and prophylactic): didn't have significant inhibition

NC(=O)c1ncn([C@@H]2O[C@H](CO)[C@@H](O)[C@H]2O)n1 [Ribavirin]
inhibition of HCV (HCV): 50%

CCc1ccc(CCOc2ccc(CC3SC(=O)NC3=O)cc2)nc1 (stereo not drawn) [Pioglitazone]
dead mice: kidney infection (db/db mice; Part 1, Positive group (30 mg/kg/day in food)): 1 | dead mice: kidney bleeding (db/db mice; db/db, mouse, in vivo, 32 days): 1 | fasting overnight BG (db/db mice; period 1): significantly lower blood glucose | body weight (db/db mice; period 1, AFOD 3 doses after 3 weeks, pioglitazone after 2 weeks): significantly increased body weight | blood glucose (fasting 6 h) (db/db mice; period 1, pioglitazone after 1 week, AFOD low dose after 8 doses): significantly reduced blood glucose | blood glucose (fasted 6 h) (db/db mice; period 2): significant difference on blood glucose | liver weight and ratio of liver/body weight (db/db mice; period 2): effect on reducing the ratio | overnight fasting blood glucose (db/db mice; period 2, after 4 weeks treatment): significantly reduced the fasting overnight blood glucose level | plasma triglyceride level (db/db mice; period 2, after 5 weeks treatment): significantly lowered | body weight (db/db mice; period 2, vs vehicle group): effect on increasing body weight | plasma insulin resistance (HOMA-IR) (db/db mice; period 2, AFOD after 14 doses (p=0.054), pioglitazone after 5 weeks (p=0.051)): trend on improving insulin resistance

CCOC(=O)C1=C[C@@H](OC(CC)CC)[C@H](NC(C)=O)[C@@H](N)C1 [Oseltamivir, Oseltamivir phosphate (prodrug)]
body weights dropped by (Influenza H1N1 A/WSN/33 [3]; mouse, in vivo): < 15% | survival (Influenza H1N1 A/WSN/33 [3]; oseltamivir 1 mg/kg orally twice daily for 8 days): survived and 4 out of 5 | Mean day to death ± S.D. (Influenza H1N1 A/WSN/33 [4]; H1N1 + Oseltamivir 1 mg/kg, P<0.01 vs vehicle): >10 ± 0.0 days | survival (Influenza H1N1 A/WSN/33 [4]; oseltamivir po/bid): survived completely | survival (Influenza H1N1 A/WSN/33 [5]): survived completely

CC(C)c1c(C(=O)Nc2ccccc2)c(-c2ccccc2)c(-c2ccc(F)cc2)n1CC[C@@H](O)C[C@@H](O)CC(=O)O [Liptor, reference compound]
calcification, pathological examination [6]: one animal with calcification

CCOC(=O)C1=C[C@@H](OC(CC)CC)[C@H](NC(C)=O)[C@@H](N)C1 [Oseltarnivir]
Survivor/total (Influenza H1N1 A/WSN/33 [3]; H1N1 + Oseltamivir po BID, dose cell prints 0.2/0.4 ml/mouse): 4/4 | Mean day to death ± S.D. (Influenza H1N1 A/WSN/33 [3]; H1N1 + Oseltamivir po BID, dose cell prints 0.2/0.4 ml/mouse, P<0.001 vs vehicle): >14 ± 0.0 days
